Here are results for 13 compounds from US8987195B2 (priority 2012, dated 2015).

Usually IC50 stands for the concentration needed to halve the response being measured. A word on the EC50: it is the concentration that produces a half-maximal response.

In assay [1] the target is HCV NS3/4A protease genotype 1b (Hepatitis C virus genotype 1b, UniProt P26663). As to the kind of experiment: HCV NS3/4A protease time-resolved fluorescence (TRF) assay, Ki against genotype 1b. The following applies: IC50 [gt-1b] (nM), NS3/4A genotype 1b, enzyme 0.2 nM. It is filed as biochemical. Summed up: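 First, protease (genotype 1b 0.2 nM, A156T 0.4 nM, genotype 3a 0.025 nM) is preincubated 30 min with inhibitor. Next, 25 nM TRF substrate starts the reaction, run 2.5 h at room temperature. Finally, europium fluorescence is read and Ki calculated from IC50.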

Another assay has as its system HCV genotype 1b replicon. As to the kind of experiment: HCV replicon assay, genotype 1b replicon EC50. The following applies: Hepatitis C virus, genotype 1b replicon, read-out: EC50 [gt-1b]. It is filed as cell-based, Hepatitis C virus. Summed up: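 Replicon cells (Neo^r, some luciferase:Neo^r fusion); G418 removed at plating; compound dilution series, 24-48 h. Readout: RNA by 32P-probe hybridization/protection or TaqMan, normalized to cyclophilin A RNA, or luciferase. EC50 vs DMSO control, 4-parameter fit.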
On the technique in general: In antiviral work, replicon cells carry a viral genome segment that copies itself.

Read-outs that look alike come from different tables or passages of the source.

Regarding `Cc1nc2ccccc2c2c1O[C@]1(CC2)C[C@H]2C(=O)N[C@]3(C(=O)NS(=O)(=O)C4(C)CC4)C[C@H]3/C=C\CCCCC[C@H](NC(=O)OCC(C)(C)C)C(=O)N2C1` [Example 130, 2,2-dimethylpropyl [(2R,6S,12Z,13aS,14aR,16aS)-5′-methyl-14a-{[(1-methylcyclopropyl)sulfonyl]carbamoyl}-5,16-dioxo-1,1′,2′,5,6,7,8,9,10,11,13a,14,14a,15,16,16a-hexadecahydrospiro[cyclopropa[e]pyrrolo[1,2-a][1,4]diazacyclopentadecine-2,3′-pyrano[2,3-c]quinolin]-6-yl]carbamate], the IC50 in assay [1] came out at 0.01 nM. The EC50 in the assay with HCV genotype 1b replicon stood at 1.93 nM.

`Cc1nc2ccccc2c2c1O[C@]1(CC2)C[C@H]2C(=O)N[C@]3(C(=O)NS(=O)(=O)C4(C)CC4)C[C@H]3/C=C\CCCCC[C@H](NC(=O)OC3(C4CC4)CC3)C(=O)N2C1` [Example 131, 1,1′-bi(cyclopropyl)-1-yl [(2R,6S,12Z,13aS,14aR,16aS)-5′-methyl-14a-{[(1-methylcyclopropyl)sulfonyl]carbamoyl}-5,16-dioxo-1,1′,2′,5,6,7,8,9,10,11,13a,14,14a,15,16,16a-hexadecahydrospiro[cyclopropa[e]pyrrolo[1,2-a][1,4]diazacyclopentadecine-2,3′-pyrano[2,3-c]quinolin]-6-yl]carbamate] showed an IC50 in assay [1] of 0.003 nM. Moreover, the EC50 with HCV genotype 1b replicon stood at 1.28 nM.

In assay [1], `COc1ccc2c3c(c(C4CC4)nc2c1)O[C@]1(CC3)C[C@H]2C(=O)N[C@]3(C(=O)NS(=O)(=O)C4(C)CC4)C[C@H]3/C=C\CCCCC[C@H](NC(=O)NC(C)(C)C)C(=O)N2C1` [Example 132, (2R,6S,12Z,13aS,14aR,16aS)-6-[(tert-butylcarbamoyl)amino]-5′-cyclopropyl-8′-methoxy-N-[(1-methylcyclopropyl)sulfonyl]-5,16-dioxo-1,1′,2′,6,7,8,9,10,11,13a,14,15,16,16a-tetradecahydrospiro[cyclopropa[e]pyrrolo[1,2-a][1,4]diazacyclopentadecine-2,3′-pyrano[2,3-c]quinoline]-14a(5H)-carboxamide] returned an IC50 of 0.002 nM. Besides, in the assay with HCV genotype 1b replicon, the EC50 was determined as 1.41 nM.

`COc1ccc2c3c(c(C4CC4)nc2c1)O[C@]1(CC3)C[C@H]2C(=O)N[C@]3(C(=O)NS(=O)(=O)C4(C)CC4)C[C@H]3/C=C\CCCCC[C@H](NC(=O)NC3CCCC3)C(=O)N2C1` [Example 133, (2R,6S,12Z,13aS,14aR,16aS)-6-[(cyclopentylcarbamoyl)amino]-5′-cyclopropyl-8′-methoxy-N-[(1-methylcyclopropyl)sulfonyl]-5,16-dioxo-1,1′,2′,6,7,8,9,10,11,13a,14,15,16,16a-tetradecahydrospiro[cyclopropa[e]pyrrolo[1,2-a][1,4]diazacyclopentadecine-2,3′-pyrano[2,3-c]quinoline]-14a(5H)-carboxamide] displayed an IC50 in assay [1] of 0.007 nM. In the assay with HCV genotype 1b replicon, the concentration giving a half-maximal response (EC50) is 17.4 nM.

For the compound `COc1ccc2c3c(c(C4CC4)nc2c1)O[C@]1(CC3)C[C@H]2C(=O)N[C@]3(C(=O)NS(=O)(=O)C4(C)CC4)C[C@H]3/C=C\CCCCC[C@H](NC(=O)OC3CCCC3)C(=O)N2C1` [Example 134, cyclopentyl [(2R,6S,12Z,13aS,14aR,16aS)-5′-cyclopropyl-8′-methoxy-14a-{[(1-methylcyclopropyl)sulfonyl]carbamoyl}-5,16-dioxo-1,1′,2′,5,6,7,8,9,10,11,13a,14,14a,15,16,16a-hexadecahydrospiro[cyclopropa[e]pyrrolo[1,2-a][1,4]diazacyclopentadecine-2,3′-pyrano[2,3-c]quinolin]-6-yl]carbamate], the IC50 in assay [1] (K+ salt) was found to be 0.014 nM. In addition, in the assay with HCV genotype 1b replicon (K+ salt), the EC50 was determined as 2.84 nM.

Regarding `COc1ccc2c3c(c(C4CC4)nc2c1)O[C@]1(CC3)C[C@H]2C(=O)N[C@]3(C(=O)NS(=O)(=O)C4(C)CC4)C[C@H]3/C=C\CCCCC[C@H](NC(=O)OC3(C)CC3)C(=O)N2C1` [Example 135, 1-methylcyclopropyl [(2R,6S,12Z,13aS,14aR,16aS)-5′-cyclopropyl-8′-methoxy-14a-{[(1-methylcyclopropyl)sulfonyl]carbamoyl}-5,16-dioxo-1,1′,2′,5,6,7,8,9,10,11,13a,14,14a,15,16,16a-hexadecahydrospiro[cyclopropa[e]pyrrolo[1,2-a][1,4]diazacyclopentadecine-2,3′-pyrano[2,3-c]quinolin]-6-yl]carbamate], the IC50 in assay [1] (K+ salt) amounted to 0.037 nM. Besides, the EC50 in the assay on HCV genotype 1b replicon (K+ salt) came out at 2.82 nM.

Consider `COc1ccc2c3c(c(C4CC4)nc2c1)O[C@]1(CC3)C[C@H]2C(=O)N[C@]3(C(=O)NS(=O)(=O)C4(C)CC4)C[C@H]3/C=C\CCCCC[C@H](NC(=O)OCC(C)C)C(=O)N2C1` [Example 136, 2-methylpropyl [(2R,6S,12Z,13aS,14aR,16aS)-5′-cyclopropyl-8′-methoxy-14a-{[(1-methylcyclopropyl)sulfonyl]carbamoyl}-5,16-dioxo-1,1′,2′,5,6,7,8,9,10,11,13a,14,14a,15,16,16a-hexadecahydrospiro[cyclopropa[e]pyrrolo[1,2-a][1,4]diazacyclopentadecine-2,3′-pyrano[2,3-c]quinolin]-6-yl]carbamate], for which, in assay [1] (K+ salt), the IC50 came to 0.019 nM. For the same compound, the EC50 with HCV genotype 1b replicon (K+ salt) came out at 2.12 nM.

In assay [1], `COc1ccc2c3c(c(C4CC4)nc2c1)O[C@]1(CC3)C[C@H]2C(=O)N[C@]3(C(=O)NS(=O)(=O)C4(C)CC4)C[C@H]3/C=C\CCCCC[C@H](NC(=O)OC(C)C)C(=O)N2C1` [Example 137, propan-2-yl [(2R,6S,12Z,13aS,14aR,16aS)-5′-cyclopropyl-8′-methoxy-14a-{[(1-methylcyclopropyl)sulfonyl]carbamoyl}-5,16-dioxo-1,1′,2′,5,6,7,8,9,10,11,13a,14,14a,15,16,16a-hexadecahydrospiro[cyclopropa[e]pyrrolo[1,2-a][1,4]diazacyclopentadecine-2,3′-pyrano[2,3-c]quinolin]-6-yl]carbamate] registered an IC50 of 0.025 nM. In addition, the EC50 in the assay on HCV genotype 1b replicon turned out to be 1.71 nM.

In turn, `CCOC(=O)N[C@H]1CCCCC/C=C\[C@@H]2C[C@@]2(C(=O)NS(=O)(=O)C2(C)CC2)NC(=O)[C@@H]2C[C@]3(CCc4c(c(C5CC5)nc5cc(OC)ccc45)O3)CN2C1=O` [Example 138, ethyl [(2R,6S,12Z,13aS,14aR,16aS)-5′-cyclopropyl-8′-methoxy-14a-{[(1-methylcyclopropyl)sulfonyl]carbamoyl}-5,16-dioxo-1,1′,2′,5,6,7,8,9,10,11,13a,14,14a,15,16,16a-hexadecahydrospiro[cyclopropa[e]pyrrolo[1,2-a][1,4]diazacyclopentadecine-2,3′-pyrano[2,3-c]quinolin]-6-yl]carbamate] yielded an IC50 in assay [1] of 0.043 nM. For the same compound, in the assay on HCV genotype 1b replicon, the EC50 is 2.51 nM.

`COC(=O)N[C@H]1CCCCC/C=C\[C@@H]2C[C@@]2(C(=O)NS(=O)(=O)C2(C)CC2)NC(=O)[C@@H]2C[C@]3(CCc4c(c(C5CC5)nc5cc(OC)ccc45)O3)CN2C1=O` [Example 139, methyl [(2R,6S,12Z,13aS,14aR,16aS)-5′-cyclopropyl-8′-methoxy-14a-{[(1-methylcyclopropyl)sulfonyl]carbamoyl}-5,16-dioxo-1,1′,2′,5,6,7,8,9,10,11,13a,14,14a,15,16,16a-hexadecahydrospiro[cyclopropa[e]pyrrolo[1,2-a][1,4]diazacyclopentadecine-2,3′-pyrano[2,3-c]quinolin]-6-yl]carbamate] came in with an IC50 in assay [1] of 0.127 nM. For the same compound, the EC50 in the assay with HCV genotype 1b replicon was 8.09 nM.

In turn, `COc1ccc2nc(C)c3c(c2c1)CC[C@]1(C[C@H]2C(=O)N[C@]4(C(=O)NS(=O)(=O)C5(C)CC5)C[C@H]4/C=C\CCCCC[C@H](NC(=O)OC4(C)CC4)C(=O)N2C1)O3` [Example 141, 1-methylcyclopropyl [(2R,6S,12Z,13aS,14aR,16aS)-9′-methoxy-5′-methyl-14a-{[(1-methylcyclopropyl)sulfonyl]carbamoyl}-5,16-dioxo-1,1′,2′,5,6,7,8,9,10,11,13a,14,14a,15,16,16a-hexadecahydrospiro[cyclopropa[e]pyrrolo[1,2-a][1,4]diazacyclopentadecine-2,3′-pyrano[2,3-c]quinolin]-6-yl]carbamate] showed an IC50 in assay [1] of 0.003 nM. The EC50 in the assay on HCV genotype 1b replicon is 1.47 nM.

Regarding `COc1ccc2nc(C)c3c(c2c1)CC[C@]1(C[C@H]2C(=O)N[C@]4(C(=O)NS(=O)(=O)C5(C)CC5)C[C@H]4/C=C\CCCCC[C@H](NC(=O)OCC(C)C)C(=O)N2C1)O3` [Example 142, 2-methylpropyl [(2R,6S,12Z,13aS,14aR,16aS)-9′-methoxy-5′-methyl-14a-{[(1-methylcyclopropyl)sulfonyl]carbamoyl}-5,16-dioxo-1,1′,2′,5,6,7,8,9,10,11,13a,14,14a,15,16,16a-hexadecahydrospiro[cyclopropa[e]pyrrolo[1,2-a][1,4]diazacyclopentadecine-2,3′-pyrano[2,3-c]quinolin]-6-yl]carbamate], the IC50 in assay [1] stood at 0.004 nM. In addition, the EC50 with HCV genotype 1b replicon amounted to 1.14 nM.

With `Cc1nc2ccccc2c2c1O[C@]1(CC2)C[C@H]2C(=O)N[C@]3(C(=O)NS(=O)(=O)C4(C)CC4)C[C@H]3/C=C\CCCCC[C@H](NC(=O)OC3CCCCC3)C(=O)N2C1` [Example 143, cyclohexyl [(2R,6S,12Z,13aS,14aR,16aS)-5′-methyl-14a-{[(1-methylcyclopropyl)sulfonyl]carbamoyl}-5,16-dioxo-1,1′,2′,5,6,7,8,9,10,11,13a,14,14a,15,16,16a-hexadecahydrospiro[cyclopropa[e]pyrrolo[1,2-a][1,4]diazacyclopentadecine-2,3′-pyrano[2,3-c]quinolin]-6-yl]carbamate], the IC50 in assay [1] (K+ salt) was 0.009 nM. In addition, the EC50 in the assay on HCV genotype 1b replicon (K+ salt) was 1.18 nM.
